Test system: P. falciparum (FCR3)
Assay: Enhancement of chloroquine potency: [3H]-hypoxanthine incorporation into chloroquine-resistant P. falciparum (FCR3) in vitro
Type: cell-based, Plasmodium falciparum
Conditions: chloroquine IC50 with compound at 200 ng/ml as percent of chloroquine-alone IC50

Row | Percent of IC50 of Chloroquine Alone [%] | SMILES
1 | 43 | CN(C)C[C@H]1Cc2ccccc2[C@@H]1Oc1ccc(Cl)c(Cl)c1 (relative stereo) [1 0 2 m,p-(Cl)2 --CH2 -- CH3 CH3 O trans]
2 | 13 | CNC[C@H]1Cc2ccccc2[C@H]1Oc1ccccc1OC (relative stereo) [1 0 1 O--OCH3 --CH2 -- CH3 H O --, cis-2,3-dihydro-1-(2-methoxyphenoxy)-N-methyl-1H-indene-2-methanamine]
3 | 14 | CN(C)C[C@H]1Cc2ccccc2[C@H]1Sc1ccccc1.O=C(O)C(=O)O (relative stereo) [1 0 0 -- --CH2 -- CH3 CH3 S cis, cis-2,3-dihydro-N,N-dimethyl-1-(phenylthio)-1H-indene-2-methanamine, ethanedioate]
4 | 10 | CN(C)CC1Cc2ccccc2C1Oc1ccccc1 (stereo not drawn) [1 0 0 -- --CH2 -- CH3 CH3 O --, 2,3-dihydro-N,N-dimethyl-1-phenoxy-1H-indene-2-methanamine]
5 | 22 | CNC[C@@H]1Cc2ccccc2[C@@H]1Oc1ccccc1C(F)(F)F (relative stereo) [1 0 1 O--CF3 --CH2 -- CH3 H O cis, CIS-2,3-dihydro-N-methyl-1-(2-trifluoromethylphenoxy)-H-indene-2-methanamine ethanedioate (1:1)]
6 | 68 | CN(C)C[C@@H]1Cc2ccccc2[C@@H]1Oc1ccc(Br)cc1 (relative stereo) [1 0 1 p-Br --CH2 -- CH3 CH3 O cis, CIS-1-(4-romophenoxy)-2,3-dihydro-N,N-dimethyl-1H-indene-2-methanamine ethanedioate]
7 | 75 | CN(C)C[C@@H]1Cc2ccccc2[C@H]1Oc1ccc2c(c1)OCO2.O=C(O)C(=O)O (relative stereo) [TRANS 1-(1,3-benzodioxol-5-yloxy)-2,3-dihydro-N,N-dimethyl-1H-indene-2-methanamine ethanedioate (1:1)]
8 | 25 | CN(C)C[C@H]1Cc2ccccc2[C@H]1Oc1ccc2c(c1)OCO2.O=C(O)C(=O)O (relative stereo) [1 0 2 --OCH2 O-- --CH2 -- CH3 CH3 O cis, CIS 1-(1,3-benzodioxol-5-yloxy)-2,3-dihydro-N,N-dimethyl-1H-indene-2-methanamine ethanedioate (1:1)]
9 | 55 | CN(C)C[C@H]1Cc2ccccc2[C@H]1Oc1ccc(C(F)(F)F)cc1.Cl (relative stereo) [1 0 1 p-CF3 --CH2 -- CH3 CH3 O cis, cis-2,3-dihydro-N,N-dimethyl-1-[4-(trifluoromethyl)-phenoxy]-1H-indene-2-methanamine hydrochloride]

Test system: chloroquine-resistant P. falciparum (FCR3)
Assay: Isobologram analysis of synergism with chloroquine, hypoxanthine incorporation (FIG. 1)
Type: cell-based, Plasmodium falciparum
Conditions: IC50 for hypoxanthine incorporation
Description: FIG. 1 illustrates the synergism of 1-(3,4-dichloro-phenoxy)-2,3-dihydro-N,N-dimethyl-1H-Indene-2-methanamine and chloroquine against chloroquine-resistant P. falciparum (FCR3). Isobologram analysis was carried out according to the method of Martin, et al., (1987) Science 235, 899-901 and Berenbaum, (1978) Journal of Infectious Diseases 137, 122-130. […] The X-axis is the IC50 concentration of drug which inhibits hypoxanthine incorporation by 50%) of chloroquine in the absence or presence of 1-(3,4-dichlorophenoxy)-2,3-dihydro-N,N-dimethyl-1H-Indene-2-methanamine while the Y-axis is the IC50 for 1-(3,4-dichlorophenoxy)-2,3-dihydro-N,N-dimethyl-1H-Indene-2-methanamine in the absence or presence of chloroquine.
P. falciparum (clone D6, chloroquine-sensitive; strain FCR3, chloroquine-resistant; and clone W2, multidrug-resistant) was grown in vitro by the method of Trager and Jensen, (1976) Science 193, 673-675.

Row | SMILES | synergism of the combination with chloroquine
10 | CN(C)CC1Cc2ccccc2C1Oc1ccc(Cl)c(Cl)c1 (stereo not drawn) [1-(3,4-dichlorophenoxy)-2,3-dihydro-N,N-dimethyl-1H-Indene-2-methanamine] | highly synergistic

Test system: P. falciparum
Assay: not given
Conditions: recently reported; by interfering with riboflavin metabolism; cited from earlier work

Row | SMILES | P. falciparum growth
11 | CN(C)CCC=C1c2ccccc2CCc2ccccc21 [amitryptyline] | suppress P. falciparum growth
12 | CN(C)CCCN1c2ccccc2CCc2ccccc21 [imipramine] | suppress P. falciparum growth

Reference: patent US5134168A, “Phenoxy and phenylthio, amino substituted benzocycloalkane derivatives in the treatment and prevention of drug-resistant protozoal infections” (Merrell Dow Pharmaceuticals Inc., priority 1991, dated 1992)
